Laboratory results as given in patent US20230233569A1 (Revolution Medicines, Inc., priority 2020, published 2023).
Like-named read-outs stand apart in the source and are kept apart here.

Key:
Assay in all cases: Ras-Raf disruption / FRET / MOA assay (BRAF RBD)
Format in all cases: biochemical
[1] = biological target: KRAS G12C (Homo sapiens, UniProt P01116+P62937, G12C); settings: with Cyclophilin A
Procedure, shortened: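 TR-FRET read-out after 1.5 h with anti-His Eu-W1024 (10 nM) and anti-GST APC (50 nM), following 3 h at 25 °C of compound (top 30 μM, 3-fold, 10 points) with 25 μM Cyclophilin A, 12.5 nM GMPPNP-loaded K-Ras G12C and 50 nM BRAF RBD; IC50 reported.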

[2] = biological target: NRAS G12C (Homo sapiens, UniProt P01111+P62937, G12C)
Excerpt: (§1) Disruption of […] Ras-binding Domain (BRAF^RBD) Interaction with K-Ras by Compounds of the Invention (also Called a FRET Assay or an MOA Assay)
(§2) Note—The following protocol describes a procedure for monitoring disruption of K-Ras G12C (GMP-PNP) binding to BRAF^RBD by a compound of the invention. This protocol may also be executed substituting other Ras proteins or nucleotides, such as K-Ras G12D and K-Ras G13D.
(§3) The purpose of this biochemical assay was to measure the ability of test compounds to facilitate ternary complex formation between a nucleotide-loaded K-Ras isoform and Cyclophilin A; the resulting ternary complex disrupts binding to a BRAF^RBD construct, inhibiting K-Ras signaling through a RAF effector. Data is reported as IC50 values.
(§4) In assay buffer containing 25 mM HEPES pH 7.3, 0.002% Tween20, 0.1% BSA, 100 mM NaCl and 5 mM MgCl2, tagless Cyclophilin A, His6-K-Ras-GMPPNP, and GST-BRAF^RBD were combined in a 384-well assay plate at final concentrations of 25 μM, 12.5 nM, and 50 nM, respectively. Compound was present in plate wells as a 10-point 3-fold dilution series starting at a final concentration of 30 μM. After incubation at 25° C. for 3 hours, a mixture of anti-His Eu-W1024 and anti-GST allophycocyanin was then added to assay sample wells at final concentrations of 10 nM and 50 nM, respectively, and the reaction incubated for an additional 1.5 hours. […] Compounds that facilitate disruption of a K-Ras:RAF complex were identified as those eliciting a decrease in the TR-FRET ratio relative to DMSO control wells.

[3] = biological target: KRAS G12V (Homo sapiens, UniProt P01116+P62937, G12V); settings: with Cyclophilin A
Excerpt: as §1, §2, §3, §4

[4] = biological target: KRAS WT (Homo sapiens, UniProt P01116+P62937); settings: with Cyclophilin A
Excerpt: as §1, §2, §3, §4

[5] = biological target: KRAS G13C (Homo sapiens, UniProt P01116+P62937, G13C); settings: with Cyclophilin A
Excerpt: as §1, §2, §3, §4

[6] = biological target: KRAS G12S (Homo sapiens, UniProt P01116+P62937, G12S); settings: with Cyclophilin A
Excerpt: as §1, §2, §3, §4

[7] = biological target: KRAS G13D (Homo sapiens, UniProt P01116+P62937, G13D); settings: with Cyclophilin A
Excerpt: as §1, §2, §3, §4

[8] = biological target: KRAS G12D (Homo sapiens, UniProt P01116+P62937, G12D); settings: with Cyclophilin A
Excerpt: as §1, §2, §3, §4

[9] = KRAS G12C FRET data IC50, Ras-Raf disruption
[10] = NRAS G12C FRET data IC50, NRAS G12C
[11] = KRAS G12V FRET data IC50, Ras-Raf disruption
[12] = KRAS WT FRET data IC50, Ras-Raf disruption
[13] = KRAS G13C FRET data IC50, Ras-Raf disruption
[14] = KRAS G12S FRET data IC50, Ras-Raf disruption
[15] = KRAS G13D FRET data IC50, Ras-Raf disruption
[16] = KRAS G12D FRET data IC50, Ras-Raf disruption
[17] = Ras-Raf disruption, read-out: KRAS G12C FRET data IC50
[18] = NRAS G12C, read-out: NRAS G12C FRET data IC50
[19] = Ras-Raf disruption, read-out: KRAS G12V FRET data IC50
[20] = Ras-Raf disruption, read-out: KRAS WT FRET data IC50
[21] = Ras-Raf disruption, read-out: KRAS G13C FRET data IC50
[22] = Ras-Raf disruption, read-out: KRAS G12S FRET data IC50
[23] = Ras-Raf disruption, read-out: KRAS G13D FRET data IC50
[24] = Ras-Raf disruption, read-out: KRAS G12D FRET data IC50

Chain of NRAS G12C (P01111 whole entry G12C, the tested form may be a part): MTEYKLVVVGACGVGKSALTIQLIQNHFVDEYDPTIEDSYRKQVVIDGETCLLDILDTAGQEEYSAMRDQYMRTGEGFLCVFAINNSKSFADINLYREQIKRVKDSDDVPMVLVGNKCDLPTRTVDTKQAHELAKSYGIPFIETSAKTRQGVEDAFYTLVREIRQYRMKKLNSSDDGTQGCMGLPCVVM
Chain of NRAS G12C (P62937 whole entry, the tested form may be a part): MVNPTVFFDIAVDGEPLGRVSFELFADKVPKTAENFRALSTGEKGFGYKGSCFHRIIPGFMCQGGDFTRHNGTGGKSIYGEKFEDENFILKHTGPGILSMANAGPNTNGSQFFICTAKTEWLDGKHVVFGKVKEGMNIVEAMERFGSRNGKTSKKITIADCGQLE
Chain of KRAS G12C (P01116 1-169 isoform P01116-2 G12C limits assumed): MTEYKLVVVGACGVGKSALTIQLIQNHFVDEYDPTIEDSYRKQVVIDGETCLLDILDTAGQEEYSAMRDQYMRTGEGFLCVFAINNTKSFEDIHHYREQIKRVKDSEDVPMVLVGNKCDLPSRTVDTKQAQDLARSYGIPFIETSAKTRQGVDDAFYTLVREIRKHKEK
Chain of KRAS G12C (P62937 whole entry): as the sequence (P62937 whole entry, the tested form may be a part) above
Chain of KRAS G12S (P01116 1-169 isoform P01116-2 G12S limits assumed): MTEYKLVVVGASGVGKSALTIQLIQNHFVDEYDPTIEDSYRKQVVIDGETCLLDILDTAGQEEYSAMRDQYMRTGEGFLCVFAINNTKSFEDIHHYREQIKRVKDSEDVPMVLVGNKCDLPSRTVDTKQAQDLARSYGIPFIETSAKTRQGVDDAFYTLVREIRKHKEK
Chain of KRAS G12S (P62937 whole entry): as the sequence (P62937 whole entry, the tested form may be a part) above
Chain of KRAS WT (P01116 1-169 isoform P01116-2 limits assumed): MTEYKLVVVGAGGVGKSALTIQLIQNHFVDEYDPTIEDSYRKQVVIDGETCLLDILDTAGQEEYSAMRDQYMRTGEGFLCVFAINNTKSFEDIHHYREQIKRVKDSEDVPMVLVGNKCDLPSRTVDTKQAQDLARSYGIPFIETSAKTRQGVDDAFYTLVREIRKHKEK
Chain of KRAS WT (P62937 whole entry): as the sequence (P62937 whole entry, the tested form may be a part) above
Chain of KRAS G12V (P01116 1-169 isoform P01116-2 G12V limits assumed): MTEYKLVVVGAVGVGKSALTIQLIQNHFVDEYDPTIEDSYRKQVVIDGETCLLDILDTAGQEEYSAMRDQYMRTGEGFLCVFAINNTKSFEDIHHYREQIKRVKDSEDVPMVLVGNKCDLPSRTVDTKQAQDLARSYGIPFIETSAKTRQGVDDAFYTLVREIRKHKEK
Chain of KRAS G12V (P62937 whole entry): as the sequence (P62937 whole entry, the tested form may be a part) above
Chain of KRAS G13D (P01116 1-169 isoform P01116-2 G13D limits assumed): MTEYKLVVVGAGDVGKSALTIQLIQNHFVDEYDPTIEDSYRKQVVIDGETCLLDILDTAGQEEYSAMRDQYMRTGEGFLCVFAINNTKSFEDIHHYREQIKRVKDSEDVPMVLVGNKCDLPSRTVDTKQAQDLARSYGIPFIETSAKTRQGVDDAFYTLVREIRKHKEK
Chain of KRAS G13D (P62937 whole entry): as the sequence (P62937 whole entry, the tested form may be a part) above
Chain of KRAS G13C (P01116 1-169 isoform P01116-2 G13C limits assumed): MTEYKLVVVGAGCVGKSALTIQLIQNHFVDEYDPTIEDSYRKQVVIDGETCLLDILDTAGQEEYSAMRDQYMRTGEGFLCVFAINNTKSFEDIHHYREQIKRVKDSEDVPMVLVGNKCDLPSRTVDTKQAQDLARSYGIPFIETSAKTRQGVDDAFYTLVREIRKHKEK
Chain of KRAS G13C (P62937 whole entry): as the sequence (P62937 whole entry, the tested form may be a part) above
Chain of KRAS G12D (P01116 1-169 isoform P01116-2 G12D limits assumed): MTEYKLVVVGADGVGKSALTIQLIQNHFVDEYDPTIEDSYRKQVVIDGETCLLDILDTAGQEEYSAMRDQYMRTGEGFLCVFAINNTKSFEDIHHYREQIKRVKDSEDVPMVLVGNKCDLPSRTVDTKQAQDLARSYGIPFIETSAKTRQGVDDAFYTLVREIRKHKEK
Chain of KRAS G12D (P62937 whole entry): as the sequence (P62937 whole entry, the tested form may be a part) above

## CCn1c(-c2cccnc2[C@H](C)OC)c2c3cc(ccc31)-c1cc(O)cc(c1)C[C@H](NC(=O)[C@H](C(C)C)N(C)C(=O)[C@H]1CCN1C(=O)[C@@H]1CN1)C(=O)N1CCC[C@H](N1)C(=O)OCC(C)(C)C2 [Example 157]
[1]; [9]
  IC50: 10 to 100 nM
[2]; [10]
  IC50: 10 to 100 nM
[3]; [11]
  IC50: 10 to 100 nM
[4]; [12]
  IC50: 10 to 100 nM
[5]; [13]
  IC50: 10 to 100 nM
[6]; [14]
  IC50: 10 to 100 nM
[7]; [15]
  IC50: 10 to 100 nM
[8]; [16]
  IC50: 100 to 1000 nM

## CCn1c(-c2cnccc2COC)c2c3cc(ccc31)-c1cccc(c1)C[C@H](NC(=O)[C@H](C(C)C)N(C)C(=O)CC(C)(C)N=C=Nc1ccc(OC)cc1)C(=O)N1CCC[C@H](N1)C(=O)OCC(C)(C)C2 [64 A and B]
[1]; [17]
  IC50: > 10000 nM
[2]; [18]
  IC50: > 10000 nM
[3]; [19]
  IC50: > 10000 nM
[4]; [20]
  IC50: > 10000 nM
[5]; [21]
  IC50: > 10000 nM
[6]; [22]
  IC50: > 10000 nM
[7]; [23]
  IC50: > 10000 nM
[8]; [24]
  IC50: > 10000 nM

## CCn1c(-c2cccnc2[C@H](C)OC)c2c3cc(ccc31)-c1cccc(c1)C[C@H](NC(=O)[C@H](C(C)C)N(C)C(=O)[C@H]1C[C@H](N=C=NCc3ccccc3OC)C1)C(=O)N1CCC[C@H](N1)C(=O)OCC(C)(C)C2 [Example 77]
[1]; [17]
  IC50: 10 to 100 nM
[2]; [18]
  IC50: 10 to 100 nM
[3]; [19]
  IC50: 1000 to 10000 nM
[4]; [20]
  IC50: 1000 to 10000 nM
[5]; [21]
  IC50: 10 to 100 nM
[6]; [22]
  IC50: 1000 to 10000 nM
[7]; [23]
  IC50: > 10000 nM
[8]; [24]
  IC50: 1000 to 10000 nM

## CCn1c(-c2cccnc2[C@H](C)OC)c2c3cc(ccc31)-c1cc(O)cc(c1)C[C@H](NC(=O)[C@H](C(C)C)N1CCC3(CCN(C(=O)[C@@H]4CN4)C3)C1=O)C(=O)N1CCC[C@H](N1)C(=O)OCC(C)(C)C2 (stereo partly drawn) [Example 113]
[1]; [17]
  IC50: < 10 nM
[2]; [18]
  IC50: < 10 nM
[3]; [19]
  IC50: 10 to 100 nM
[4]; [20]
  IC50: 10 to 100 nM
[5]; [21]
  IC50: 10 to 100 nM
[6]; [22]
  IC50: 10 to 100 nM
[7]; [23]
  IC50: 10 to 100 nM
[8]; [24]
  IC50: 10 to 100 nM

## CCn1c(-c2cccnc2[C@H](C)OC)c2c3cc(ccc31)-c1cc(O)cc(c1)C[C@H](NC(=O)[C@H](C(C)C)N(C)C(=O)c1ccc([C@@H]3CN3)nc1)C(=O)N1CCC[C@H](N1)C(=O)OCC(C)(C)C2 [Example 87]
[1]; [17]
  IC50: 10 to 100 nM
[2]; [18]
  IC50: 10 to 100 nM
[3]; [19]
  IC50: 100 to 1000 nM
[4]; [20]
  IC50: 100 to 1000 nM
[5]; [21]
  IC50: 10 to 100 nM
[6]; [22]
  IC50: 100 to 1000 nM
[7]; [23]
  IC50: 100 to 1000 nM
[8]; [24]
  IC50: 1000 to 10000 nM

## CCn1c(-c2cccnc2[C@H](C)OC)c2c3cc(ccc31)-c1cc(O)cc(c1)C[C@H](NC(=O)[C@H](C(C)C)N(C)C(=O)C1CCN(C(=O)[C@H]3CN3)CC1)C(=O)N1CCC[C@H](N1)C(=O)OCC(C)(C)C2 [Example 86]
[1]; [17]
  IC50: 10 to 100 nM
[2]; [18]
  IC50: < 10 nM
[3]; [19]
  IC50: 100 to 1000 nM
[4]; [20]
  IC50: 10 to 100 nM
[5]; [21]
  IC50: 10 to 100 nM
[6]; [22]
  IC50: 10 to 100 nM
[7]; [23]
  IC50: 10 to 100 nM
[8]; [24]
  IC50: 100 to 1000 nM

## CCn1c(-c2cnccc2COC)c2c3cc(ccc31)-c1cccc(c1)C[C@H](NC(=O)[C@H](C(C)C)N(C)C(=O)CCN=C=NCc1c(OC)cccc1OC)C(=O)N1CCC[C@H](N1)C(=O)OCC(C)(C)C2 [62 A and B]
[1]; [17]
  IC50: 1000 to 10000 nM
[2]; [18]
  IC50: 1000 to 10000 nM
[3]; [19]
  IC50: > 10000 nM
[4]; [20]
  IC50: 1000 to 10000 nM
[5]; [21]
  IC50: 1000 to 10000 nM
[6]; [22]
  IC50: 1000 to 10000 nM
[7]; [23]
  IC50: 1000 to 10000 nM
[8]; [24]
  IC50: 1000 to 10000 nM

## CCn1c(-c2cccnc2[C@H](C)OC)c2c3cc(ccc31)-c1cc(O)cc(c1)C[C@H](NC(=O)[C@H](C(C)C)N1CC[C@@]3(CCN(C(=O)[C@@H]4N[C@@H]4C4CC4)C3)C1=O)C(=O)N1CCC[C@H](N1)C(=O)OCC(C)(C)C2 [Example 128]
[1]; [17]
  IC50: 10 to 100 nM
[2]; [18]
  IC50: 10 to 100 nM
[3]; [19]
  IC50: 100 to 1000 nM
[4]; [20]
  IC50: 100 to 1000 nM
[5]; [21]
  IC50: 10 to 100 nM
[6]; [22]
  IC50: 100 to 1000 nM
[7]; [23]
  IC50: 100 to 1000 nM
[8]; [24]
  IC50: 100 to 1000 nM

## CCn1c(-c2cccnc2[C@H](C)OC)c2c3cc(ccc31)-c1cc(O)cc(c1)C[C@H](NC(=O)[C@H](C(C)C)N1CC[C@@]3(CCN(C(=O)[C@H]4CN4)C3)C1=O)C(=O)N1CCC[C@H](N1)C(=O)OCC(C)(C)C2 [Example 149]
[1]; [17]
  IC50: < 10 nM
[2]; [18]
  IC50: < 10 nM
[3]; [19]
  IC50: 10 to 100 nM
[4]; [20]
  IC50: 10 to 100 nM
[5]; [21]
  IC50: 10 to 100 nM
[6]; [22]
  IC50: 10 to 100 nM
[7]; [23]
  IC50: 10 to 100 nM
[8]; [24]
  IC50: 100 to 1000 nM

## CCn1c(-c2cccnc2[C@H](C)OC)c2c3cc(ccc31)-c1cc(O)cc(c1)C[C@H](NC(=O)[C@H](C(C)C)N1CCC3(CN(C(=O)[C@@H]4CN4)C3)C1=O)C(=O)N1CCC[C@H](N1)C(=O)OCC(C)(C)C2 [Example 109]
[1]; [17]
  IC50: < 10 nM
[2]; [18]
  IC50: < 10 nM
[3]; [19]
  IC50: 100 to 1000 nM
[4]; [20]
  IC50: 10 to 100 nM
[5]; [21]
  IC50: 10 to 100 nM
[6]; [22]
  IC50: 100 to 1000 nM
[7]; [23]
  IC50: 10 to 100 nM
[8]; [24]
  IC50: 1000 to 10000 nM

## CCn1c(-c2cccnc2[C@H](C)OC)c2c3cc(ccc31)-c1cc(O)cc(c1)C[C@H](NC(=O)[C@H](C(C)C)N1CC[C@@H](NC(=O)[C@@H]3CN3)C1=O)C(=O)N1CCC[C@H](N1)C(=O)OCC(C)(C)C2 [Example 129]
[1]; [9]
  IC50: 10 to 100 nM
[2]; [10]
  IC50: 10 to 100 nM
[3]; [11]
  IC50: 100 to 1000 nM
[4]; [12]
  IC50: 10 to 100 nM
[5]; [13]
  IC50: < 10 nM
[6]; [14]
  IC50: 10 to 100 nM
[7]; [15]
  IC50: 10 to 100 nM
[8]; [16]
  IC50: 100 to 1000 nM

## CCn1c(-c2cccnc2[C@H](C)OC)c2c3cc(ccc31)-c1cc(O)cc(c1)C[C@H](NC(=O)[C@H](C(C)C)N(C)C(=O)c1ncc(NC(=O)[C@H]3CN3)n1C)C(=O)N1CCC[C@H](N1)C(=O)OCC(C)(C)C2 [Example 84]
[1]; [17]
  IC50: 10 to 100 nM
[2]; [18]
  IC50: 10 to 100 nM
[3]; [19]
  IC50: 100 to 1000 nM
[4]; [20]
  IC50: 100 to 1000 nM
[5]; [21]
  IC50: < 10 nM
[6]; [22]
  IC50: 100 to 1000 nM
[7]; [23]
  IC50: 100 to 1000 nM
[8]; [24]
  IC50: 1000 to 10000 nM
